Ki data for two compounds are collected here from article PMC4032192 (Journal of Medicinal Chemistry, 2014).

The structures appear in SMILES notation.

The target of the test is rat nNOS (Rattus norvegicus, UniProt P29476). The experiment in a line: oxyhemoglobin NO capture assay, rat nNOS. Type of test: biochemical.
rat nNOS, sequence (P29476 whole entry): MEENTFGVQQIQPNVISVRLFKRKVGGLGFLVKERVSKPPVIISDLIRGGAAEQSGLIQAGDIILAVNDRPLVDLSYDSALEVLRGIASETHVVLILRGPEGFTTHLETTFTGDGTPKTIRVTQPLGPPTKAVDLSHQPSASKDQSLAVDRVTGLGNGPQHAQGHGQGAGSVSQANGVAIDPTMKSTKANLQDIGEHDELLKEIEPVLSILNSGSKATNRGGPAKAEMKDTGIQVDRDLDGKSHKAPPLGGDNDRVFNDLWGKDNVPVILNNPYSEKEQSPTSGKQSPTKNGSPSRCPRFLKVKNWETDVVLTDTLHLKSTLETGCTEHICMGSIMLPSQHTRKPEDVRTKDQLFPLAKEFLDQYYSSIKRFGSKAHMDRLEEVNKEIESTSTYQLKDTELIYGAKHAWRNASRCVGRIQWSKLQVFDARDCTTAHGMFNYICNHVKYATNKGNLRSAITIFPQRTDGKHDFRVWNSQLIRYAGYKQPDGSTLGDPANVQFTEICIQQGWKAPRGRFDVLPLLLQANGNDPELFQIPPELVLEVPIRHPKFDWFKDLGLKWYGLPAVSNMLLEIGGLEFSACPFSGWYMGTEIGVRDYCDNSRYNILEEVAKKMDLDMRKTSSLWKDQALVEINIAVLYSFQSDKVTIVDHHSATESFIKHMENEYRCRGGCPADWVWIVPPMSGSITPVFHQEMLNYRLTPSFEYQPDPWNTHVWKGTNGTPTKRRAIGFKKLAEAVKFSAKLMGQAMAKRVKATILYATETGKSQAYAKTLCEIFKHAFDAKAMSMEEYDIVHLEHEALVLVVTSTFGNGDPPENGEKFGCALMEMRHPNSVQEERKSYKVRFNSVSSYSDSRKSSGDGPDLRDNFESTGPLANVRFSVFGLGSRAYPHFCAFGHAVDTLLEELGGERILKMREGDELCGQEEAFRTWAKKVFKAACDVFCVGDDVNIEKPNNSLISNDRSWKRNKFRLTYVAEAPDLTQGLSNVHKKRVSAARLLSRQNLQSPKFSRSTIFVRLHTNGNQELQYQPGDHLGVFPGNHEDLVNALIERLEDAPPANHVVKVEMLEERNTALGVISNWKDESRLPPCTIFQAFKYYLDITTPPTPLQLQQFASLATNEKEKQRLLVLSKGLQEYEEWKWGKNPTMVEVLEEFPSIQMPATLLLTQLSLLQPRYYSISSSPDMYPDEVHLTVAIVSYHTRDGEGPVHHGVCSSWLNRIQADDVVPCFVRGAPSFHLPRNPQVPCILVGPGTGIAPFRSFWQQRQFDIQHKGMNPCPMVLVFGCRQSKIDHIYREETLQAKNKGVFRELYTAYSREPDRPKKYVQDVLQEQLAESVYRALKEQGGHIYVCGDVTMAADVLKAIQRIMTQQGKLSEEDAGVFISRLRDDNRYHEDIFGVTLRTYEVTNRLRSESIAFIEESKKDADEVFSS

Broadly, the Ki is the equilibrium dissociation constant of an inhibitor or competing ligand from its target. Higher therefore signals a looser hold on the target. Compound `Cc1cc(N)nc(CCc2cccc([C@H](N)Cc3cc(C)cc(N)n3)c2)c1` [Compound 3R, (R)-6-(2-Amino-2-(3-(2-(6-amino-4-methylpyridin-2-yl)ethyl)phenyl)ethyl)-4-methylpyridin-2-amine] displayed a Ki of roughly 100 nM.
As for `Cc1cc(N)nc(CCc2cccc(C(O)Cc3cc(C)cc(N)n3)c2)c1` (centres unmarked) [Compound 4], the Ki is roughly 100 nM.
